# In ChEMBL document CHEMBL1129886, “Novel indole containing thiazolidinedione derivatives as potent euglycemic and hypolipidaemic agents” (1997):
# Key:
# Type in all cases: functional
# Mus musculus [1] = test: Percentage reduction in random blood sugar in mice measured on 0th and 6th day at a dose of 200 mg/kg peroral administration; conditions: route oral
# Mus musculus [2] = test: Percentage reduction in random blood sugar in mice measured on 0th and 3rd day at a dose of 200 mg/kg peroral administration; conditions: route oral
# Mus musculus [3] = test: Percentage reduction in random blood sugar in mice measured on 0th and 9th day at a dose of 200 mg/kg peroral administration; conditions: route oral
# Mus musculus [4] = test: Percentage reduction in triglyceride measured on 0 and 9th day at a dose of 100 mg/kg
# Mus musculus [5] = test: Percentage reduction in triglyceride measured on 0 and 9th day at a dose of 200 mg/kg
# Mus musculus [6] = test: Percentage reduction in AUC determined Glucose tolerance test in 18 h fasted animals after feeding 3 g/kg of glucose at a dose of 200 mg/kg peroral administration; conditions: route oral
structure (smiles),measurement,setting,value
NC(Cc1cn(CCOc2ccc(/C=C3\SC(=O)NC3=O)cc2)c2ccccc12)C(=O)O (stereo not given),Reduction in RBS,Mus musculus [1],29%
same,Reduction in RBS,Mus musculus [2],0%
same,Reduction in RBS,Mus musculus [3],0%
same,Reduction in TG,Mus musculus [4],64%
O=C1NC(=O)/C(=C/c2ccc(OCCn3cnc4ccccc43)cc2)S1,Reduction in RBS,Mus musculus [1],31%
same,Reduction in RBS,Mus musculus [2],22%
same,Reduction in RBS,Mus musculus [3],33%
same,Reduction in TG,Mus musculus [5],76%
Cc1c(C)c2c(c(C)c1O)CCC(C)(COc1ccc(CC3SC(=O)NC3=O)cc1)O2 (stereo not given) [TROGLITAZONE],Reduction in AUC,Mus musculus [6],20%
same,Reduction in RBS,Mus musculus [1],16%
same,Reduction in RBS,Mus musculus [2],14%
same,Reduction in RBS,Mus musculus [3],24%
same,Reduction in TG,Mus musculus [5],50%
O=C1NC(=O)C(Cc2ccc(OCCn3ccc4ccccc43)cc2)S1 (stereo not given),Reduction in AUC,Mus musculus [6],55%
same,Reduction in RBS,Mus musculus [1],48%
same,Reduction in RBS,Mus musculus [2],64%
same,Reduction in RBS,Mus musculus [3],74%
same,Reduction in TG,Mus musculus [5],77%
O=C1NC(=O)/C(=C/c2ccc(OCCn3c4ccccc4c4ccccc43)cc2)S1,Reduction in RBS,Mus musculus [1],0%
same,Reduction in RBS,Mus musculus [2],0%
same,Reduction in RBS,Mus musculus [3],0%
same,Reduction in TG,Mus musculus [4],44%
O=C1NC(=O)C(Cc2ccc(OCCn3c4ccccc4c4ccccc43)cc2)S1 (stereo not given),Reduction in RBS,Mus musculus [1],0%
same,Reduction in RBS,Mus musculus [2],0%
same,Reduction in RBS,Mus musculus [3],0%
same,Reduction in TG,Mus musculus [4],21%
O=C1NC(=O)/C(=C/c2ccc(OCCn3c(C(=O)O)cc4ccccc43)cc2)S1,Reduction in RBS,Mus musculus [1],39%
same,Reduction in RBS,Mus musculus [2],50%
same,Reduction in RBS,Mus musculus [3],12%
same,Reduction in TG,Mus musculus [5],0%
O=C1NC(=O)/C(=C/c2ccc(OCCn3ccc4ccccc43)cc2)S1,Reduction in AUC,Mus musculus [6],15%
same,Reduction in RBS,Mus musculus [1],40%
same,Reduction in RBS,Mus musculus [2],27%
same,Reduction in RBS,Mus musculus [3],33%
same,Reduction in TG,Mus musculus [5],37%
